In patent US7879876B2, “Sulfonamide derivatives and use thereof for the modulation of metalloproteinases” (Merck Serono SA, priority 2005, dated 2011):

What was measured:
metalloelastase (MMP-12) = metalloelastase (MMP-12) (Homo sapiens, UniProt P39900); test: MMP-12 enzyme inhibition assay (coumarin-labelled peptide substrate); type: biochemical; conditions: read-out: IC50 MMP12
Outline: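 Recombinant human MMP-12 assayed per the MMP-9 protocol: Tris-HCl pH 7.6 buffer with NaCl, CaCl2, Brij 35; McaPLGLDpaAR substrate, compounds 100 μM–5.1 nM in duplicate, 2 h at 37° C. Fluorescence read at 405 nm (320 nm excitation) without stopping; IC50 from four-parameter fit.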

gelatinase A (MMP-2) = molecular target: T1, gelatinase A (MMP-2) (Homo sapiens, UniProt P08253); test: MMP-2 enzyme inhibition assay (coumarin-labelled peptide substrate); type: biochemical; conditions: read-out: IC50 MMP2
T1 sequence (P08253 110-660): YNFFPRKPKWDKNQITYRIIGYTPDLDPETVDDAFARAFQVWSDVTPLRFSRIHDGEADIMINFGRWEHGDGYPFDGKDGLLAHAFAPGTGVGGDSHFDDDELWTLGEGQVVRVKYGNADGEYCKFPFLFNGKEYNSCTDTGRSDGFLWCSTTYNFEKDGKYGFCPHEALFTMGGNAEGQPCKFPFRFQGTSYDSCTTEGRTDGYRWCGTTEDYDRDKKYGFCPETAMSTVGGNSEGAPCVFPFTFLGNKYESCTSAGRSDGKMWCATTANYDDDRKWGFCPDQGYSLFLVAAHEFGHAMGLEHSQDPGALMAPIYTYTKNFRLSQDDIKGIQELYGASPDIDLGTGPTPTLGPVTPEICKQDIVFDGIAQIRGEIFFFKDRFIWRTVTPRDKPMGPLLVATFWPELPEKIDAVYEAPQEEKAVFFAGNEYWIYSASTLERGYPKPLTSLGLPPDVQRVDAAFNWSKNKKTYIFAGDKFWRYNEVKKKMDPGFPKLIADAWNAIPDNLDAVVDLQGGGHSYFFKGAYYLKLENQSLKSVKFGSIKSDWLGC
Outline: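 Recombinant human MMP-2, APMA-activated if necessary, run as for the MMP-9 protocol: McaPLGLDpaAR substrate (8 μM working dilution) in 100 mM Tris-HCl pH 7.6, 100 mM NaCl, 10 mM CaCl2, 0.05% Brij 35; ten 3-fold concentrations (100 μM–5.1 nM) in duplicate, 2 h at 37° C. Fluorescence ex 320/em 405 nm, unstopped; IC50 from four-parameter fit.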

metalloelastase (MMP-12), sequence (P39900 106-470): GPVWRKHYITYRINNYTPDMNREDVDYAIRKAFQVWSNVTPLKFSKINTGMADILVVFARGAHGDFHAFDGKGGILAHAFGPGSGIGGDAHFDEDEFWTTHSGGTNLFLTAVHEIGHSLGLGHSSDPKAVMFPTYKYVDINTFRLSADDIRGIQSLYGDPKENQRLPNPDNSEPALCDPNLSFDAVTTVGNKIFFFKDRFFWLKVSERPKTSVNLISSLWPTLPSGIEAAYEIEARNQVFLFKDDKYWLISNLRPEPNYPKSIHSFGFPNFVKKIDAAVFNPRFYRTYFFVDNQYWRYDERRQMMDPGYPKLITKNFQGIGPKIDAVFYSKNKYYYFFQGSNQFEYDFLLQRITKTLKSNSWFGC

Compound | IC50 (metalloelastase (MMP-12)) [nM] | IC50 (gelatinase A (MMP-2)) [nM]
O=CN(O)C(CCc1ccccc1)CS(=O)(=O)N1CCc2ccccc2C1 (centres unmarked) [Example 1, N-{1-[(3,4-dihydroisoquinolin-2(1H)-ylsulfonyl)methyl]-3-phenylpropyl}-N-hydroxyformamide] | 27 | 95
CC(C)c1ccc2c(c1)CCN(S(=O)(=O)CC(C1CC1)N(O)C=O)C2 (centres unmarked) [Example 85, N-{1-cyclopropyl-2-[(6-isopropyl-3,4-dihydroisoquinolin-2(1H)-yl)sulfonyl]ethyl}-N-hydroxyformamide] | 4.9 | 78
O=CN(O)C(CS(=O)(=O)N1CCc2ccc(-c3cccc(O)c3)cc2C1)C1CCCC1 (centres unmarked) [Example 70, N-(1-cyclopentyl-2-{[7-(3-hydroxyphenyl)-3,4-dihydroisoquinolin-2(1H)-yl]sulfonyl}ethyl)-N-hydroxyformamide] | 41 | 1560
O=CN(O)C(CS(=O)(=O)N1CCc2cc(C(F)(F)F)ccc2C1)C1CCCC1 (centres unmarked) [Example 25, N-(1-cyclopentyl-2-{[6-(trifluoromethyl)-3,4-dihydro-isoquinolin-2(1H)-yl]sulfonyl}ethyl)-N-hydroxyformamide] | 6 | 78
CC(C)(C)C(CS(=O)(=O)N1CCc2ccc(Cl)cc2C1)N(O)C=O (centres unmarked) [Example 65, N-(1-{[(7-chloro-3,4-dihydroisoquinolin-2(1H)-yl)sulfonyl]methyl}-2,2-dimethylpropyl)-N-hydroxyformamide] | 27 | 277
COc1cc2c(cc1OC)CN(S(=O)(=O)CC([C@H]1COC(C)(C)O1)N(O)C=O)CC2 (stereo partly drawn) [Example 14, N-{2-[(6,7-dimethoxy-3,4-dihydroisoquinolin-2(1H)-yl)sulfonyl]-1-[(4S)-2,2-dimethyl-1,3-dioxolan-4-yl]ethyl}-N-hydroxyformamide] | 41 | > 5000
O=CN(O)C(CS(=O)(=O)N1CCc2ccc(-c3ccncc3)cc2C1)C1CCCC1 (centres unmarked) [Example 79, N-{1-cyclopentyl-2-[(7-pyridin-4-yl-3,4-dihydroisoquinolin-2(1H)-yl)sulfonyl]ethyl}-N-hydroxyformamide] | 2 | 67
O=CN(O)C(COc1ccccc1)CS(=O)(=O)N1CCc2ccc(Cl)cc2C1 (centres unmarked) [Example 61, N-[2-[(7-chloro-3,4-dihydroisoquinolin-2(1H)-yl)sulfonyl]-1-(phenoxymethyl)ethyl]-N-hydroxyformamide] | 15 | 38
O=CN(O)C(CS(=O)(=O)N1CCc2ccc(-c3ccsc3)cc2C1)C1CCCC1 (centres unmarked) [Example 68, N-(1-cyclopentyl-2-{[7-(3-thienyl)-3,4-dihydroisoquinolin-2(1H)-yl]sulfonyl}ethyl)-N-hydroxyformamide] | 9 | 221
CC(C)c1ccc2c(c1)CCN(S(=O)(=O)CC([C@H]1COC(C)(C)O1)N(O)C=O)C2 (stereo partly drawn) [Example 18, N-{1-[(4S)-2,2-dimethyl-1,3-dioxolan-4-yl]-2-[(6-isopropyl-3,4-dihydroisoquinolin-2(1H)-yl)sulfonyl]ethyl}-N-hydroxyformamide] | 1.4 | 5
CCCCCC(C)(C)C(CS(=O)(=O)N1CCc2cc(C(F)(F)F)ccc2C1)N(O)C=O (centres unmarked) [Example 63, N-[2,2-dimethyl-1-({[6-(trifluoromethyl)-3,4-dihydro-isoquinolin-2(1H)-yl]sulfonyl}methyl)heptyl]-N-hydroxyformamide] | 88 | > 5000
O=CN(O)C(CS(=O)(=O)N1CCc2ccc(Br)cc2C1)C1CCCC1 (centres unmarked) [Example 64, N-{2-[(7-bromo-3,4-dihydroisoquinolin-2(1H)-yl)sulfonyl]-1-cyclopentylethyl}-N-hydroxyformamide] | 7.9 | 42
CC(C)C(CS(=O)(=O)N1CCc2cc(Cl)c(Cl)cc2C1)N(O)C=O (centres unmarked) [Example 39, N-(1-{[(6,7-dichloro-3,4-dihydroisoquinolin-2(1H)-yl)-sulfonyl]methyl}-2-methylpropyl)-N-hydroxyformamide] | 4.1 | 16
